# Laboratory results reported in patent publication US20100311726A1, “REDUCTION OF BETA-AMYLOID LEVELS BY TREATMENT WITH THE SMALL MOLECULE DIFFERENTIATION-INDUCING FACTOR” (priority 2007, published 2010).
# What was measured:
# naïve CHO cells = test: Flow cytometry cell cycle distribution, naive CHO; assay type: cell-based, Chinese Hamster; details: 25 μM overnight
# Experimental: Naïve and CHO-7W cells were collected by trypsin/EDTA treatment and counted using a haemocytometer. The cells (1×10^5) were deposited into 10 cm tissue culture dishes containing fresh media and grown for 24 hours prior to DIF-1 treatment (25 μM). Cells were grown in the presence of DIF-1 for approximately 20 hours. Cells harvested by the trypsin/EDTA treatment were suspended in hypotonic fluorochrome solution containing 50 ug/ml of propidium iodide, 0.1% sodium citrate, and 0.1% Triton X-100. Cells (5×10^4) for each sample were analyzed for fluorescence using the Massachusetts General Hospital cytology core. Cell cycle distribution was compared between vehicle and DIF-1 treated nave CHO cells, and CHO-7W cells. The percentage of cells in G0/G1, S-phase and G2/M represents the mean cell number±the standard deviation from at least 3 separate experiments.
# To determine where in the cell cycle DIF-1 acts, we assessed the cell cycle distribution of naïve CHO cells using flow cytometry (FIG. 1B). CHO cells were incubated with DIF-1 (25 μM) for the indicated periods and then harvested by the trypsin/EDTA treatment, fixed and stained with propidium iodide (PI) and fluorescence of nuclei was measured. Histogram peaks are labeled by phases (G0/G1, S and G2/M). The percentages of cell number in the cell cycle phases are shown as means+/−S.E. of three independent experiments performed in duplicate. […]
# human APLP1 = test: APLP1 metabolism by western blot in CHO-A1 cells; assay type: cell-based; details: 30 μM DIF-1 or 250 nM DAPT, ~20 hours
# Experimental: CHO cells that stably express human APLP1, which is a closely related family member of the APPs and known γ-secretase substrate (Eggert et al., 2004), were treated with 30 μM DIF-1, DAPT or DIF-1 plus DAPT (FIG. 7). Equal numbers of CHO-A1 cells stably expressing human APLP1 cells were plated in 6-well dishes and allowed to grow overnight. The next day, the media was removed and replaced with control media (2 ml) or media containing DAPT, DIF-1 or DAPT and DIF-1. […] After washing, blots were probed with HRP-conjugated secondary antibodies (1:5000) for 1 hour at room temperature.
# CHO cells [1] = test: Cell proliferation assay (haemocytometer counts); assay type: cell-based, Chinese Hamster
# Excerpt: (§1) For proliferation assays, 1×10^4 cells were deposited into 24-well plates and treated with vehicle (ethanol or DMSO) or with various amounts of DIF-1 or DIF-3 for a period of 4 days. Cells were harvested after each day by trypsin/EDTA treatment, stained with an equal volume of 0.05% Trypan blue and enumerated in triplicate twice using a haemocytometer. Dead cells are stained blue, but live cells with intact cell membranes are not coloured. Data represents the mean cell number±the standard deviation for at least 3 separate experiments.
# We therefore assessed the dose-dependent anti-proliferative effect of DIF-1 on normal (non-transformed) CHO cells (FIG. 1A). Briefly, CHO cells were seeded on a 6-well plate (10,000 cells/well) and were incubated with 25 μM DIF-1. Cells were harvested by the trypsin/EDTA treatment at the times indicated and counted with a haemocytometer. […] Therefore, for this study we only analyzed the effect of DIF-1 between 18 and 20 hours.
# CHO-CAB cells = test: Confocal fluorescence microscopy of CHO-CAB cells; assay type: cell-based, Chinese Hamster; details: 30 μM overnight
# Experimental: CHO-CAB cells were grown on multi-well chamber slides and treated overnight with 30 μM DIF-1. The cells were fixed with 4% paraformaldehyde/PBS, permeabilized with 0.1% Triton X-100/PBS for 10 min and blocked with 5% goat serum/PBS. APP (rabbit C-terminal 8717), PDI (ER marker), GM130 (golgi marker), and ubiquitin were detected using their corresponding antibodies and Alexa Fluor-conjugated secondary antibodies. Nuclei were stained with Hoechst 33342 (Molecular Probes/Invitrogen). Confocal fluorescence images were obtained using an Olympus DSU/IX70 spinning disc confocal microscope and processed using IPLab software (Scanalytics/BD Biosciences).
# Next, the effect of DIF-1 on APP trafficking and subcellular distribution was assessed. Cells were fixed with 4% paraformaldehyde/PBS, permeabilized with 0.1% Triton X-100/PBS and blocked with 5% goat serum/PBS. Confocal microscopy of CHO-CAB cells stained with APP antibodies together with the ER marker PDI or golgi marker GM130 confirmed that APP primarily co-localized with GM130 and PDI (FIG. 14A). […] ER structure upon DIF-1 treatment became highly vacuolated but to a varying degree within populations of cells.
# human APLP2 = test: APLP2 CTF levels in CHO cells expressing APLP2; assay type: cell-based; details: co-treatment of DIF-1 and DAPT
# Excerpt: To ascertain if DIF-1 indiscriminately perturbs the metabolism of type I transmembrane proteins we investigated the processing of other γ-secretase substrates.
# CHO cells [2] = test: Cell viability (trypan blue exclusion) and apoptosis (caspase-3); assay type: cell-based
# Excerpt: as §1
# Cells were harvested by the trypsin/EDTA treatment at the times indicated and counted with a haemocytometer.
# [3] = neutral pH; cited from earlier work
# [4] = tested on: notch intracellular domain (NICD); test: Notch intracellular domain (NICD) level; assay type: cell-based
# APP ubiquitin-conjugates = APP ubiquitin-conjugates by immunoprecipitation and western blot; details: CHO-CAB
# Experimental: For immunoprecipitations, 1 mg of total protein was diluted with extraction buffer and precleared with protein G-conjugated agarose beads (Pierce). The precleared samples were incubated overnight with anti-APP antibodies or nonimmune IgG (Jackson Laboratories). Immunocomplexes were captured with Protein G agarose beads, washed five times with extraction buffer and heated for 5 min at 95° C. in SDS gel-loading buffer.
# CHO-CAB cell protein extracts (1 mg) were immunoprecipitated using APP antibodies. The immunoprecipitated complexes were analyzed by western blotting using anti-ubiquitin antibodies. […] Molecular Weight markers (kDa) are shown on the left. GAPDH levels are shown below each blot. The data represents that of three separate experiments.
# To determine whether the proteasome-mediated degradation of APP is accompanied by increased levels of poly-ubiquitinated APP, we investigated the ubiquitination status of APP in extracts of CHO-CAB cells treated in the absence or presence of DIF-1 (30 μM), lactacystin (10 μM), ALLN (10 μM), DIF-1+lactacystin and DIF-1+ALLN.
smiles,measurement,setting,value
"CCCCCC(=O)c1c(O)c(Cl)c(OC)c(Cl)c1O [DIF-1, 1-[3,5-dichloro-2,6-dihydroxy-4-methoxyphenyl]-1-hexanone]",percentage of cells in G0/G1,naïve CHO cells,52.6%±0.9
same,"APLP1 maturation, protein levels, CTF levels",human APLP1,"no effect on APLP1 maturation, protein levels or CTF production"
same,inhibition of growth,"CHO cells [1]; 25 μM, 24 hours","minor, yet insignificant inhibition of growth"
same,decrease in proliferation compared to control and vehicle treated cells,"CHO cells [1]; after 72 hours, all cell lines tested (e.g. CHO, N2a and SH-SY5Y)",70-75%
same,reversibility of antiproliferative effect,CHO cells [1]; washing treated cells with PBS and fresh growth media,readily reversed
same,ER structure (PDI marker),CHO-CAB cells,disruption in the structure of the ER
same,subcellular distribution of APP,CHO-CAB cells,enriched around the nuclear periphery
same,APLP2 CTF levels,human APLP2,decrease in APLP2 CTF levels
same,"cell adhesion, cell shape, apoptosis (caspase-3 activation)",CHO cells [2],"did not effect cell adhesion, cell shape or induce apoptosis"
same,effect on cell viability (trypan blue exclusion),CHO cells [2]; any of the cell lines tested,no observable effect on cell viability
same,solubility,[3],soluble in both water and hexane
same,effect on notch intracellular domain (NICD),[4],no effect
same,"APP ubiquitin conjugates, treatment with both lactacystin and DIF-1",APP ubiquitin-conjugates,only slightly reduced
same,"APP ubiquitin-conjugates, co-treatment with ALLN",APP ubiquitin-conjugates,prevented the accumulation APP ubiqutin-conjugates
same,level of APP ubiquitin-conjugates (single agent),"APP ubiquitin-conjugates; DIF-1 30 μM, lactacystin 10 μM, ALLN 10 μM",decreased levels of APP ubiquitin-conjugates
